Measured values from ChEMBL document CHEMBL4257221, “Peptides comprising non-natural amino acids and methods of making and using the same” (2016).
Numbered stars: 1 amine (or outer) side, 2 acyl side, 3 side chain; on linkers, the order of the positions; unused ones are H or OH. Square brackets hold non-standard residues; d marks the D form. Peptide text beside a SMILES is read from it. ξ: configuration not given here. X1 = O=C([C@H]1CCC[C@@H]1N[*:1])[*:2]; X2 = O=C([C@H]1CNC[C@@H]1N[*:1])[*:2]; ξβ3hY = NC(CC(=O)O)Cc1ccc(O)cc1; β3hN = NC(=O)C[C@H](N)CC(=O)O; β3hV = CC(C)[C@H](N)CC(=O)O; ξβ3hL = CC(C)CC(N)CC(=O)O; ξβ3hK = NCCCCC(N)CC(=O)O; Aib = CC(C)(N)C(=O)O; βAla = NCCC(=O)O

Key:
[1] = molecular target: T1, Vasoactive intestinal polypeptide receptor 1 (Homo sapiens, UniProt P32241); assay: Agonist activity at human VIPR1 expressed in CHOK1 cells assessed as intracellular cAMP accumulation after 60 mins by PathHunter assay; type: functional, cell-based
T1 sequence (P32241 whole entry): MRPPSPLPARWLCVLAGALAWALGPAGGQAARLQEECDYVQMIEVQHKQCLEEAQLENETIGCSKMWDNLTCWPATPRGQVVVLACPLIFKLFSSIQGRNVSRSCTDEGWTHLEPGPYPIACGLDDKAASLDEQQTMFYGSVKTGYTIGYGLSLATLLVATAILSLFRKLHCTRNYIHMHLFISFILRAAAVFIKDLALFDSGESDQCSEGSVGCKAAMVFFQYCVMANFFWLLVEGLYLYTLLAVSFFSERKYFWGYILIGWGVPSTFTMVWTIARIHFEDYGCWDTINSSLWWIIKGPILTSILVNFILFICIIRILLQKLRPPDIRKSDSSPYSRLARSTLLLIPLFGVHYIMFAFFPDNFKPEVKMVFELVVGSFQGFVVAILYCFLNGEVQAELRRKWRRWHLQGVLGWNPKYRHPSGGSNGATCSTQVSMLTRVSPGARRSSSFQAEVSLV

[2] = molecular target: T2, Vasoactive intestinal polypeptide receptor 2 (Homo sapiens, UniProt P41587); assay: Agonist activity at human VIPR2 expressed in CHOK1 cells assessed as intracellular cAMP accumulation after 60 mins by PathHunter assay; type: functional, cell-based
T2 sequence (P41587 whole entry): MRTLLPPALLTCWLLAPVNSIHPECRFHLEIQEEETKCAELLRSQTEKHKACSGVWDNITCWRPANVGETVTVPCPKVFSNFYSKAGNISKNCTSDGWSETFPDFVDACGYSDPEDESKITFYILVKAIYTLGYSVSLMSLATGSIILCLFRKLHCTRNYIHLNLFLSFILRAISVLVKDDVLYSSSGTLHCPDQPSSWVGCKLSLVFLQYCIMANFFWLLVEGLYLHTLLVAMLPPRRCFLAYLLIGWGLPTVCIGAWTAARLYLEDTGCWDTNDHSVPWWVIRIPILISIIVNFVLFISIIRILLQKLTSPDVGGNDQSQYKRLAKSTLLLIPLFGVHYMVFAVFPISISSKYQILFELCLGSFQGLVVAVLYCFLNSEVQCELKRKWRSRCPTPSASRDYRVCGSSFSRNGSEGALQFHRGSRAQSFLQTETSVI

Row | SMILES | EC50 [1] [nM] | EC50 [2] [nM]
1 | CC(=O)N[C@@H](Cc1cnc[nH]1)C(=O)N[C@@H](CO)C(=O)N[C@@H](CC(=O)O)C(=O)N[C@@H](C)C(=O)N[C@H](C(=O)N[C@@H](Cc1ccccc1)C(=O)N[C@H](C(=O)N[C@@H](CCC(=O)O)C(=O)N[C@@H](CC(N)=O)C(=O)N[C@@H](Cc1ccc(O)cc1)C(=O)N[C@H](C(=O)N[C@@H](CCCCN)C(=O)N[C@@H](CC(C)C)C(=O)N[C@@H](CCCNC(=N)N)C(=O)N[C@@H](CCCCN)C(=O)N[C@@H](CCC(N)=O)C(=O)N[C@H]1CCC[C@@H]1C(=O)N[C@@H](C)C(=O)N[C@@H](C)C(=O)N[C@H]1CNC[C@@H]1C(=O)N[C@@H](CCCCN)C(=O)N[C@@H](Cc1ccc(O)cc1)C(=O)N[C@@H](CC(C)C)C(=O)N[C@H]1CCC[C@@H]1C(=O)N[C@@H](CC(=O)O)C(=O)N[C@@H](CC(C)C)C(=O)NC(CCCCN)CC(=O)N[C@@H](CCCCN)C(=O)NCC(=O)NCC(=O)N[C@H](C(=O)O)[C@@H](C)O)[C@@H](C)O)[C@@H](C)O)C(C)C (stereo partly drawn) (Ac-HSDAVFTENYTKLRKQ[X1]AA[X2]KYL[X1]DL[ξβ3hK]KGGT-OH) | 218 | 0.18
2 | CC(=O)N[C@@H](Cc1cnc[nH]1)C(=O)NC(C)(C)C(=O)N[C@@H](CC(=O)O)C(=O)N[C@@H](C)C(=O)N[C@H](C(=O)N[C@@H](Cc1ccccc1)C(=O)N[C@H](C(=O)N[C@@H](CCC(=O)O)C(=O)N[C@@H](CC(N)=O)C(=O)N[C@@H](Cc1ccc(O)cc1)C(=O)N[C@H](C(=O)N[C@@H](CCCCN)C(=O)N[C@@H](CC(C)C)C(=O)N[C@@H](CCCNC(=N)N)C(=O)N[C@@H](CCCCN)C(=O)N[C@@H](CCC(N)=O)C(=O)N[C@@H](CC(C)C)C(=O)N[C@@H](C)C(=O)N[C@@H](C)C(=O)N[C@H]1CNC[C@@H]1C(=O)N[C@@H](CCCCN)C(=O)N[C@@H](Cc1ccc(O)cc1)C(=O)N[C@H]1CCC[C@@H]1C(=O)N[C@@H](CC(N)=O)C(=O)N[C@@H](CC(=O)O)C(=O)N[C@@H](CC(C)C)C(=O)NC(CCCCN)CC(=O)N[C@@H](CCCCN)C(=O)NCC(=O)NCCC(=O)N[C@H](C(=O)O)[C@@H](C)O)[C@@H](C)O)[C@@H](C)O)C(C)C (stereo partly drawn) (Ac-H[Aib]DAVFTENYTKLRKQLAA[X2]KY[X1]NDL[ξβ3hK]KG[βAla]T-OH) | 516 | 0.529
3 | CC(=O)N[C@@H](Cc1cnc[nH]1)C(=O)NC(C)(C)C(=O)N[C@@H](CC(=O)O)C(=O)N[C@@H](C)C(=O)N[C@H](CC(=O)N[C@@H](Cc1ccccc1)C(=O)N[C@H](C(=O)N[C@@H](CCC(=O)O)C(=O)N[C@@H](CC(N)=O)C(=O)N[C@@H](Cc1ccc(O)cc1)C(=O)N[C@H](C(=O)N[C@@H](CCCCN)C(=O)N[C@@H](CC(C)C)C(=O)N[C@@H](CCCNC(=N)N)C(=O)N[C@@H](CCCCN)C(=O)N[C@@H](CCC(N)=O)C(=O)N[C@@H](CC(C)C)C(=O)N[C@@H](C)C(=O)N[C@@H](C)C(=O)N[C@H]1CNC[C@@H]1C(=O)N[C@@H](CCCCN)C(=O)N[C@@H](Cc1ccc(O)cc1)C(=O)N[C@H]1CCC[C@@H]1C(=O)N[C@@H](CC(N)=O)C(=O)N[C@@H](CC(=O)O)C(=O)N[C@@H](CC(C)C)C(=O)NC(CCCCN)CC(=O)N[C@@H](CCCCN)C(=O)NCC(=O)NCCC(=O)N[C@H](C(=O)O)[C@@H](C)O)[C@@H](C)O)[C@@H](C)O)C(C)C (stereo partly drawn) (Ac-H[Aib]DA[β3hV]FTENYTKLRKQLAA[X2]KY[X1]NDL[ξβ3hK]KG[βAla]T-OH) | > 1000 | 0.816
4 | CC(=O)N[C@@H](Cc1cnc[nH]1)C(=O)NC(C)(C)C(=O)N[C@@H](CC(=O)O)C(=O)N[C@@H](C)C(=O)N[C@H](CC(=O)N[C@@H](Cc1ccccc1)C(=O)N[C@H](C(=O)N[C@@H](CCC(=O)O)C(=O)N[C@@H](CC(N)=O)CC(=O)N[C@@H](Cc1ccc(O)cc1)C(=O)N[C@H](C(=O)N[C@@H](CCCCN)C(=O)N[C@@H](CC(C)C)C(=O)N[C@@H](CCCNC(=N)N)C(=O)N[C@@H](CCCCN)C(=O)N[C@@H](CCC(N)=O)C(=O)N[C@@H](CC(C)C)C(=O)N[C@@H](C)C(=O)N[C@@H](C)C(=O)N[C@H]1CNC[C@@H]1C(=O)N[C@@H](CCCCN)C(=O)N[C@@H](Cc1ccc(O)cc1)C(=O)N[C@H]1CCC[C@@H]1C(=O)N[C@@H](CC(N)=O)C(=O)N[C@@H](CC(=O)O)C(=O)N[C@@H](CC(C)C)C(=O)NC(CCCCN)CC(=O)N[C@@H](CCCCN)C(=O)NCC(=O)NCCC(=O)N[C@H](C(=O)O)[C@@H](C)O)[C@@H](C)O)[C@@H](C)O)C(C)C (stereo partly drawn) (Ac-H[Aib]DA[β3hV]FTE[β3hN]YTKLRKQLAA[X2]KY[X1]NDL[ξβ3hK]KG[βAla]T-OH) | > 1000 | 3.47
5 | CC(=O)N[C@@H](Cc1cnc[nH]1)C(=O)N[C@H]1CCC[C@@H]1C(=O)N[C@@H](CC(=O)O)C(=O)N[C@@H](C)C(=O)N[C@H](C(=O)N[C@@H](Cc1ccccc1)C(=O)N[C@H](C(=O)N[C@@H](CCC(=O)O)C(=O)N[C@@H](CC(N)=O)C(=O)N[C@@H](Cc1ccc(O)cc1)C(=O)N[C@H](C(=O)N[C@@H](CCCCN)C(=O)N[C@@H](CC(C)C)C(=O)N[C@@H](CCCNC(=N)N)C(=O)N[C@@H](CCCCN)C(=O)N[C@@H](CCC(N)=O)C(=O)N[C@@H](CC(C)C)C(=O)N[C@@H](C)C(=O)N[C@@H](C)C(=O)N[C@H]1CNC[C@@H]1C(=O)N[C@@H](CCCCN)C(=O)N[C@@H](Cc1ccc(O)cc1)C(=O)N[C@H]1CCC[C@@H]1C(=O)N[C@@H](CC(N)=O)C(=O)N[C@@H](CC(=O)O)C(=O)N[C@@H](CC(C)C)C(=O)NC(CCCCN)CC(=O)N[C@@H](CCCCN)C(=O)NCC(=O)NCCC(=O)N[C@H](C(=O)O)[C@@H](C)O)[C@@H](C)O)[C@@H](C)O)C(C)C (stereo partly drawn) (Ac-H[X1]DAVFTENYTKLRKQLAA[X2]KY[X1]NDL[ξβ3hK]KG[βAla]T-OH) | > 1000 | 0.593
6 | CC(=O)N[C@@H](Cc1cnc[nH]1)C(=O)N[C@H]1CCC[C@@H]1C(=O)N[C@@H](CC(=O)O)C(=O)N[C@@H](C)C(=O)N[C@H]1CCC[C@@H]1C(=O)N[C@@H](Cc1ccccc1)C(=O)N[C@H](C(=O)N[C@@H](CCC(=O)O)C(=O)N[C@H]1CCC[C@@H]1C(=O)N[C@@H](Cc1ccc(O)cc1)C(=O)N[C@H](C(=O)N[C@@H](CCCCN)C(=O)N[C@@H](CC(C)C)C(=O)N[C@@H](CCCNC(=N)N)C(=O)N[C@@H](CCCCN)C(=O)N[C@@H](CCC(N)=O)C(=O)N[C@@H](CC(C)C)C(=O)N[C@@H](C)C(=O)N[C@@H](C)C(=O)N[C@H]1CNC[C@@H]1C(=O)N[C@@H](CCCCN)C(=O)N[C@@H](Cc1ccc(O)cc1)C(=O)N[C@H]1CCC[C@@H]1C(=O)N[C@@H](CC(N)=O)C(=O)N[C@@H](CC(=O)O)C(=O)N[C@@H](CC(C)C)C(=O)NC(CCCCN)CC(=O)N[C@@H](CCCCN)C(=O)NCC(=O)NCCC(=O)N[C@H](C(=O)O)[C@@H](C)O)[C@@H](C)O)[C@@H](C)O (stereo partly drawn) (Ac-H[X1]DA[X1]FTE[X1]YTKLRKQLAA[X2]KY[X1]NDL[ξβ3hK]KG[βAla]T-OH) | > 1000 | 5.58
7 | CC(=O)N[C@@H](Cc1cnc[nH]1)C(=O)N[C@H]1CCC[C@@H]1C(=O)N[C@@H](CC(=O)O)C(=O)N[C@@H](C)C(=O)N[C@H]1CCC[C@@H]1C(=O)N[C@@H](Cc1ccccc1)C(=O)N[C@H](C(=O)N[C@@H](CCC(=O)O)C(=O)N[C@H]1CCC[C@@H]1C(=O)NC(CC(=O)N[C@H](C(=O)N[C@@H](CCCCN)C(=O)N[C@@H](CC(C)C)C(=O)N[C@@H](CCCNC(=N)N)C(=O)N[C@@H](CCCCN)C(=O)N[C@@H](CCC(N)=O)C(=O)NC(CC(=O)N[C@@H](C)C(=O)N[C@@H](C)C(=O)N[C@H]1CNC[C@@H]1C(=O)N[C@@H](CCCCN)C(=O)N[C@@H](Cc1ccc(O)cc1)C(=O)N[C@H]1CCC[C@@H]1C(=O)N[C@@H](CC(N)=O)C(=O)N[C@@H](CC(=O)O)C(=O)N[C@@H](CC(C)C)C(=O)NC(CCCCN)CC(=O)N[C@@H](CCCCN)C(=O)NCC(=O)NCCC(=O)N[C@H](C(=O)O)[C@@H](C)O)CC(C)C)[C@@H](C)O)Cc1ccc(O)cc1)[C@@H](C)O (stereo partly drawn) (Ac-H[X1]DA[X1]FTE[X1][ξβ3hY]TKLRKQ[ξβ3hL]AA[X2]KY[X1]NDL[ξβ3hK]KG[βAla]T-OH) | 785 | 1.17
8 | CC(=O)N[C@@H](Cc1cnc[nH]1)C(=O)N[C@H]1CCC[C@@H]1C(=O)N[C@@H](CC(=O)O)C(=O)N[C@@H](C)C(=O)N[C@H]1CCC[C@@H]1C(=O)N[C@@H](Cc1ccccc1)C(=O)N[C@H](C(=O)N[C@@H](CCC(=O)O)C(=O)N[C@H]1CCC[C@@H]1C(=O)NC(CC(=O)N[C@H](C(=O)N[C@@H](CCCCN)C(=O)N[C@@H](CC(C)C)C(=O)N[C@@H](CCCNC(=N)N)C(=O)N[C@@H](CCCCN)C(=O)NCCC(=O)N[C@@H](CC(C)C)C(=O)N[C@@H](C)C(=O)N[C@@H](C)C(=O)N[C@H]1CNC[C@@H]1C(=O)N[C@@H](CCCCN)C(=O)N[C@@H](Cc1ccc(O)cc1)C(=O)N[C@H]1CCC[C@@H]1C(=O)N[C@@H](CC(N)=O)C(=O)N[C@@H](CC(=O)O)C(=O)N[C@@H](CC(C)C)C(=O)NC(CCCCN)CC(=O)N[C@@H](CCCCN)C(=O)NCC(=O)NCCC(=O)N[C@H](C(=O)O)[C@@H](C)O)[C@@H](C)O)Cc1ccc(O)cc1)[C@@H](C)O (stereo partly drawn) (Ac-H[X1]DA[X1]FTE[X1][ξβ3hY]TKLRK[βAla]LAA[X2]KY[X1]NDL[ξβ3hK]KG[βAla]T-OH) | > 1000 | 1.02
